Data set [1] concerns anti-dioxin antibody (monoclonal antibody) to 1,2,3,7,8-PeCDF. In kind it is binding, mouse. How it is done:
(§1) First, the immune antigen or the compound (IIa) conjugated with BSA that was produced in Example 2 was diluted with PBS to 1 μg/ml, and divided into each well of a 96-well assay plate (manufactured by Costar, Cat. No. 3590) in an amount of 50 μl. Then, the plate was sealed and allowed to stand at room temperature for one hour. Then, each well was washed with PBS containing 0.005% of Tween 20 three times. Next, 300 μl of Block Ace (manufactured by Snow Brand Milk Products Co., Ltd.) diluted with distilled water to a concentration of 25% was supplied to each well, and the plate was sealed and allowed to stand at 37° C. for two hours. Each well was washed with PBS containing 0.005% of Tween 20 three times. Then, a 25 μl of the dioxin compound solution of a final concentration of 5×10^−7 M was added to each well. The dioxin compound solution was prepared by diluting the dioxin with a dilution solvent comprising 20% DMSO and 0.01% of Triton X100. As controls, a dilution solvent in an amount of 25 μl was added to each well. Immediately after the addition of the dioxin compound solution or the dilution solvent, 25 μl of an antibody solution diluted with PBS containing 1 mg/ml of BSA was added to each well. The assay plate was stand at room temperature for one hour with slightly shaking.
(§2) After washing with PBS containing 0.005% of Tween 20 three times, 50 μl of the diluted HRP-labeled goat anti-mouse IgG (H+L) antibody (produced by affinity purification) was added to each well. The diluted HRP-labeled antibody was prepared by diluting the purchased HRP-labeled antibody to 2000 times as much with 10% Block Ace. The plate was allowed to stand at room temperature for one hour, followed by washing with PBS containing 0.005% of Tween 20 three times. Then, 50 μl of a HRP substrate, TMB (manufactured by KPL Co., Ltd.), was added to each well and allowed to stand at room temperature for 5 to 10 min. Then, 5 μl of a 1 M phosphate solution was added to each well, and the absorbance at a wavelength of 455 nm (655 nm for the reference) was measured with a spectrophotometer for a microtiter. The reactivity was evaluated by obtaining the absorbance (B0) at the time when the dioxin compound is not added, which is a control (diluent) and the absorbance (B) at the time when the dioxin compound is added. The inhibition rate was measured based on the following equation. Inhibition rate={(B0−B)/B0}×100 (%)
An anti-dioxin antibody (monoclonal antibody) to 1,2,3,7,8-PeCDF is used as an antibody. A haptenized product of a solid-phase antigen 6-(2,4,5-trichlorophenoxy) hexanoic acid amide derivative (IIa) and the chlorine-containing organic compounds in Tables 2 and 3 were allowed to compete with each other to this anti-dioxin antibody so that a competitive reaction was effected in the same manner as in Example 3. Then, the cross-reactivity was examined.

Data set [2] has as its system monoclonal antibody of clone C-2 (anti-dioxin antibody). The data set is described as follows: Competitive EIA: inhibition of binding of clone C-2 monoclonal antibody to solid-phase antigen by free dioxin. More on the design: species or system mouse. How it is done:
(§3) Using various monoclonal antibodies, the specificity of the monoclonal antibodies to dioxin isomers was examined. The monoclonal antibodies were prepared in the following manner. An antibody-producing cell was injected into the abdominal cavity of a pristane-pretreated mouse. Th ascites fluid in the abdominal cavity caused by the growth of the cells was collected, and then a monoclonal antibody was purified by affinity chromatography using a protein G-Sepharose (manufactured by BIO-RAD Co.) as a carrier. Using three antibody-producing clones C-1, C-2 and C-3, respective monoclonal antibodies were prepared. The clones C-1, C-2 and C-3 produce monoclonal antibodies with respect to dibenzodioxin having chlorine atom at the 2-, 3-, 7-, and 8-positions.
(§4) To evaluate the specificity of the monoclonal antibody was performed according to the following principles. A solid-phase antigen (competitor) and a free dioxin (ligand) are allowed to compete with each other with respect to a free monoclonal antibody (anti-dioxin antibody). If the reactivity of the monoclonal antibody and the dioxin is higher than that of the monoclonal antibody and the solid-phase antigen, the binding of the monoclonal antibody to the solid-phase antigen is reduced. This reduction of the binding of the monoclonal antibody to the solid-phase antigen can be measured by color development method. This phenomenon can be applied to evaluate the specificity.
as §1, §2
(§5) Evaluation was such that the larger this inhibition rate is, the higher the specificity of the anti-dioxin antibody to the dioxin compound.

The conditions of data set [3]: toxicity equivalent factor of the dioxins used; cited from earlier work.
Data set [4] has as its system monoclonal antibody of clone C-3 (anti-dioxin antibody). Nature of the data set: Competitive EIA: inhibition of binding of clone C-3 monoclonal antibody to solid-phase antigen by free dioxin. Further details: species or system mouse. How it is done:
as §3, §4, §1, §2, §5

Data set [5] concerns monoclonal antibody of clone C-1 (anti-dioxin antibody). The data set is described as follows: Competitive EIA: inhibition of binding of clone C-1 monoclonal antibody to solid-phase antigen by free dioxin. More on the design: species or system mouse. How it is done:
as §3, §4, §1, §2, §5

Setting [6] is: Table 3, other chlorine-containing organic compounds and polycyclic aromatic hydrocarbons, solid-phase antigen (IIa), antibody to 1,2,3,7,8-PeCDF.
Where [7] appears, read: solid-phase antigen * (haptenized product of 6-(2,4,5-trichlorophenoxy) hexanoic acid amide derivative IIa), dioxin compound 5×10^−7 M.
The mark [8] stands for this setting: solid-phase antigen immunogen 2, dioxin compound final concentration 5×10^−7 M.
Where [9] appears, read: Table 2, dioxins having TEF, solid-phase antigen (IIa), antibody to 1,2,3,7,8-PeCDF.
[10] abbreviates: solid-phase antigen immunogen 3, dioxin compound final concentration 5×10^−7 M.
Where [11] appears, read: solid-phase antigen immunogen 1, dioxin compound final concentration 5×10^−7 M.

Structures are written as SMILES. Like-named read-outs stand apart in the source and are kept apart here. Bounds are passed on as bounds.

`Clc1ccc(-c2ccccc2)cc1` [p-chlorobiphenyl] yielded a cross reaction in data set [1] (setting [6]) of under 0.1%.
On the same count and under the same terms, the figure for `c1cc2ccc3cccc4ccc(c1)c2c34` [Pyrene] is under 0.1%.
Take `Clc1cc2c(c(Cl)c1Cl)Oc1c(cc(Cl)c(Cl)c1Cl)O2` [1,2,3,7,8,9-HxCDD]: the Inhibition rate in data set [2] (setting [7]) is given as 41.9%; in data set [2] (setting [8]), 30.6%; in data set [4] (setting [7]) it was 28.6%; in data set [4] (setting [10]), 6.7%; in data set [5] (setting [7]), 19.1%; in data set [5] (setting [11]), 15.7%. Moreover, the cross reaction in data set [1] (setting [9]) is recorded as 39.8%. In data set [3], the TEF value is given as 0.1.
Consider `Clc1cc2c(c(Cl)c1Cl)Oc1cc(Cl)c(Cl)c(Cl)c1O2` [1,2,3,6,7,8-HxCDD], for which the Inhibition rate in data set [2] (setting [7]) is given as 2.2%; in data set [2] (setting [8]) it was −6.2%; in data set [4] (setting [7]), 6.7%; in data set [4] (setting [10]), 3.9%; in data set [5] (setting [7]), −0.3%; in data set [5] (setting [11]), 3.1%. This compound also showed a cross reaction in data set [1] (setting [9]) of 18.0%. In data set [3], the TEF value is on record as 0.1.
`Clc1cc2c(cc1Cl)Oc1c(cc(Cl)c(Cl)c1Cl)O2` [1,2,3,7,8-PeCDD]: the Inhibition rate in data set [2] (setting [7]) was determined as 70.4%; in data set [2] (setting [8]), 45.7%; in data set [4] (setting [7]), 31.2%; in data set [4] (setting [10]), 5.4%; in data set [5] (setting [7]), 46.2%; in data set [5] (setting [11]), 21.3%. Besides, in data set [1] (setting [9]), the cross reaction was 29.9%. In addition, the TEF value in data set [3] is recorded as 1.
In the case of `c1ccc2c(c1)ccc1ccccc12` [Phenanthrene], the cross reaction in data set [1] (setting [6]) is under 0.1%.
In data set [1] (setting [6]), `Oc1cc(Cl)c(Cl)cc1Cl` [2,4,5-Trichlorophenol] had a cross reaction of under 0.1%.
In data set [1] (setting [6]), `Clc1cccc(Cl)c1Cl` [1,2,3-Trichlorobenzene] gave a cross reaction of under 0.1%.
Regarding `Clc1cc2oc3c(Cl)c(Cl)c(Cl)cc3c2cc1Cl` [2,3,4,7,8-PeCDF], the Inhibition rate in data set [2] (setting [7]) is on record as 55.0%; in data set [2] (setting [8]), 40.2%; in data set [4] (setting [7]), 46.2%; in data set [4] (setting [10]), 13.0%; in data set [5] (setting [7]), 40.1%; in data set [5] (setting [11]), 26.5%. Further, the cross reaction in data set [1] (setting [9]) is recorded as 16.1%.
As to `Clc1cc2c(c(Cl)c1Cl)Oc1c(Cl)c(Cl)c(Cl)c(Cl)c1O2` [1,2,3,4,6,7,8-HpCDD], the Inhibition rate in data set [2] (setting [7]) is recorded as −3.2%; in data set [2] (setting [8]), −12.4%; in data set [4] (setting [7]), 2.1%; in data set [4] (setting [10]), 0.4%; in data set [5] (setting [7]), 1.4%; in data set [5] (setting [11]) it was 1.5%. This compound gave a cross reaction in data set [1] (setting [9]) of 17.0%. Also, the TEF value in data set [3] was 0.01.
For `c1ccc2ccccc2c1` [Naphthalene], the cross reaction in data set [1] (setting [6]) is under 0.1%.
Take `Clc1cc2oc3cc(Cl)c(Cl)cc3c2cc1Cl` [2,3,7,8-TeCDF]: the Inhibition rate in data set [2] (setting [7]) is reported as 37.6%; in data set [2] (setting [8]) it was 15.3%; in data set [4] (setting [7]), 4.3%; in data set [4] (setting [10]) it was −1.6%; in data set [5] (setting [7]), 8.4%; in data set [5] (setting [11]), 1.6%. Further, the cross reaction in data set [1] (setting [9]) amounted to 1.5%. In data set [3], the TEF value is listed as 0.1.
As for `c1ccc2cc3c(cc2c1)-c1cccc2cccc-3c12` [Benzo[k]fluoranthene], in data set [1] (setting [6]), the cross reaction is reported as under 0.1%.
As to `Clc1cc2oc3cc(Cl)c(Cl)c(Cl)c3c2c(Cl)c1Cl` [1,2,3,7,8,9-HxCDF], the Inhibition rate in data set [2] (setting [7]) was found to be 68.1%; in data set [2] (setting [8]), 43.3%; in data set [4] (setting [7]), 48.1%; in data set [4] (setting [10]), 10.4%; in data set [5] (setting [7]), 34.7%; in data set [5] (setting [11]) it was 26.2%. For the same compound, the cross reaction in data set [1] (setting [9]) stood at 42.7%. Also, the TEF value in data set [3] was 0.1.
`Clc1cc2c(cc1Cl)Oc1cc(Cl)c(Cl)cc1O2` [2,3,7,8-TeCDD, 2,3,7,8-tetrachlorozibenzo-p-dioxin]: the Inhibition rate is on record as 7.7% in data set [2] (setting [7]); −3.0% in data set [2] (setting [8]); −3.4% in data set [4] (setting [7]); −0.2% in data set [4] (setting [10]); 7.4% in data set [5] (setting [7]); 0.4% in data set [5] (setting [11]). Also, the cross reaction in data set [1] (setting [9]) was 1.1%. Further, in data set [3], the TEF value is 1.
`c1ccc2c(c1)-c1cccc3c1c-2cc1ccccc13` [Benzo[b]fluoranthene] displayed a cross reaction in data set [1] (setting [6]) of under 0.1%.
Consider `c1ccc2cc3c(ccc4ccccc43)cc2c1` [Benz[a]anthracene], for which the cross reaction in data set [1] (setting [6]) is listed as under 0.1%.
The same measure, in the same setting: the same measure for `c1ccc2cc3ccccc3cc2c1` [Anthracene]: under 0.1%.
As to `Clc1cc2c(oc3c(Cl)c(Cl)c(Cl)c(Cl)c32)c(Cl)c1Cl` [1,2,3,4,6,7,8-HpCDF], the Inhibition rate was 51.4% in data set [2] (setting [7]); 6.8% in data set [2] (setting [8]); 3.4% in data set [4] (setting [7]); −2.7% in data set [4] (setting [10]); 7.5% in data set [5] (setting [7]); −0.9% in data set [5] (setting [11]). In data set [1] (setting [9]), this compound displayed a cross reaction of 17.9%. The TEF value in data set [3] is recorded as 0.01.
As to `c1ccc2c(c1)-c1cccc3cccc-2c13` [Fluoranthene], the cross reaction in data set [1] was under 0.1%.
The compound `Oc1ccc(Cl)cc1Cl` [2,4-Dichlorophenol] came in with a cross reaction in data set [1] (setting [6]) of under 0.1%.
The compound `Clc1cc(-c2cc(Cl)c(Cl)c(Cl)c2)cc(Cl)c1Cl` [3,3′,4,4′,5,5′-HxCB] gave a cross reaction in data set [1] (setting [6]) of under 0.1%.
In the case of `Clc1ccc(-c2cc(Cl)c(Cl)c(Cl)c2)cc1Cl` [3,3′,4,4′,5-PeCB], the cross reaction in data set [1] (setting [6]) is given as under 0.1%.
The compound `Clc1ccc(-c2ccc(Cl)c(Cl)c2)cc1Cl` [3,3′,4,4′-TeCB] showed a cross reaction in data set [1] (setting [6]) of under 0.1%.
Regarding `c1ccc2c(c1)-c1ccc3ccc4cccc5cc-2c1c3c45` [Indeno[1,2,3-cd]pyrene], the cross reaction in data set [1] (setting [6]) is under 0.1%.
Consider `c1ccc2c(c1)ccc1c3ccccc3ccc21` [Chrysene], for which the cross reaction in data set [1] (setting [6]) is given as under 0.1%.
On to `c1ccc2c(c1)Cc1ccccc1-2` [Fluorene], for which the cross reaction in data set [1] (setting [6]) is on record as under 0.1%.
For the compound `Oc1ccc(Cl)c(Cl)c1` [3,4-Dichlorophenol], the cross reaction in data set [1] (setting [6]) is under 0.1%.
Still for that read-out and setting: the same measure for `Clc1cccc(Cl)c1` [m-Dichlorobenzene]: under 0.1%.
The compound `c1cc2ccc3ccc4ccc5cccc6c(c1)c2c3c4c56` [Benzo[ghi]perylene] returned a cross reaction in data set [1] (setting [6]) of under 0.1%.
